According to patent publication US5559115A, “Oncogene function-inhibitory agent, method for inhibiting oncogene function, and treatment of cancer” (Terumo Kabushiki Kaisha, priority 1993, dated 1996):
Converted amounts (≈) assume the structure as drawn. “Also recorded” adds a separate entry of the source. Read-outs that look alike come from different tables or passages of the source.

What was measured:
K-ras-NIH 3T3 cells = assay: Effect on production of actin filaments, K-ras-NIH 3T3 cells; format: cell-based, mouse; conditions: 1 μg/ml, one day
Experimental: (§1) A cover glass with a diameter of 18 mm (manufactured by Matsunami Glass Industry K.K.) that had been washed with 100% ethanol, dried, and sterilized was placed in wells of 12 wells plastic plate, and the cells were inoculated in the wells at 3.0×10^4 /DMEM 1 ml/well. The plate was incubated in an incubator of 5% CO2 for 1 day. To the thus incubated cell culture was added 1 μg/ml of III-121C, and the incubation was continued for another one day. The cell culture was then fixed with paraformaldehyde. The fixed cell culture was reacted with rhodamine pharoidine reagent (Molecular Probe Inc.) to examine the cell morphology by fluorescence microscope with G filter (excitation, 546 nm).

K-ras^ts NRK cells = assay: Propagation inhibitory effect on K-ras^ts NRK cells; format: cell-based, rat; conditions: for IC50: Rattus norvegicus, NRK, 72 h, K-ras^ts NRK, 3 days, read-out: IC50, cell propagation
Experimental: (§2) Normal rat kidney cell, NRK-49 (Dainihon Pharmaceutical K.K.) and normal mouse cell, NIH 3T3 (JCRB Cell Bank); and K-ras NIH 3T3, H-ras NIH 3T3, and N-ras NIH 3T3 (Tokyo University, Medical Science Institute, Japan) which are cell lines that have been transformed with Kirsten sarcoma virus, Harvey sarcoma virus, and neuroblastoma virus, respectively, were incubated at 37° C. in the similar manner.
Cells of K-ras^ts -NRK were inoculated in wells of 24 wells plastic plate (Costar 3524, manufactured by Costar) at 1.0×10^4 /DMEM 1 ml/well, and the plate was incubated in an incubator of 5% CO2 at 33° C. for one day. III-121C was added to the thus incubated cells to different concentrations and the incubation was continued. After predetermined periods, the medium was removed of the cell culture, and cells were peeled off the wall of the well by using trypsin. DMEM was added to the well to uniformly suspend the cells, and the cell concentration in the suspension was measured with Coulter counter (ZM type manufactured by Coulter Electronics) to obtain the results shown in FIG. 7.
(§3) Next, cells of different types were inoculated in wells of 12 wells plastic plate (Costar 3521, manufactured by Costar) at 2.0×10^4 /DMEM 1 ml/well, and the plate was incubated in an incubator of 5% CO2 for one day. III-121C was added to the thus incubated cells to different concentrations and incubation was continued for another 3 days. The number of cells was measured by repeating the above-described procedure to determine the concentration (IC50) of the III-121C required to inhibit the cell propagation to 50%.

K-ras^ts-NRK cells [1] = assay: Effect on production of actin filaments, K-ras^ts-NRK cells; format: cell-based, rat; conditions: 1 μg/ml, one day
Experimental: as §1

K-ras^ts-NRK cells [2] = assay: Action mechanism: morphology / M phase observation in K-ras^ts-NRK cells; format: cell-based, rat
Experimental: Before the addition of the III-121C, the cells grew atop the other and had projections or processes on their surface (FIG. 9(a)).
The procedure as described above was repeated by replacing the III-121C with 0.1 μg/ml of vinblastine, 0.1 μg/ml of vincristine and 0.1 μg/ml of colchicine, which are known as microtubule formation inhibitors.

K-ras^ts-NRK cells [3] = assay: Activity to induce changes in cell morphology, K-ras^ts-NRK cells; format: cell-based, rat; conditions: 2 days
Experimental: as §2
(§4) The effect of the III-121C on various types of cultured cells was evaluated by inoculating each type of cells in wells of 24 wells plastic plate (Costar 3524, manufactured by Costar) at 3×10^4 cells/1 ml medium/well; incubating the plate in an incubator of 5% CO2 for one day; and adding the III-121C sample to the cell cultures to observe the cell morphology for another two days.

H-ras-NIH 3T3 cells [4] = assay: Propagation inhibitory effect on H-ras-NIH 3T3 cells; format: cell-based; conditions: Mus musculus, NIH3T3, 72 h; H-ras-NIH 3T3, 3 days; read-out: IC50, cell propagation
Experimental: as §2, §3

K-ras-NRK cells [5] = assay: Effect on production of actin filaments, K-ras-NRK cells; format: cell-based, rat; conditions: 1 μg/ml, one day
Experimental: as §1

cancer cell = assay: 50% inhibition of cancer cell propagation, various cell lines; format: cell-based; conditions: varies by type of cancer cell; approximately; Table 1; read-out: concentration (IC50) required for 50% inhibition of the cancer cell propagation
Experimental: as §3

H-ras-NIH 3T3 cells [6] = assay: Effect on production of actin filaments, H-ras-NIH 3T3 cells; format: cell-based, mouse; conditions: 1 μg/ml, one day
Experimental: as §1

K-ras-NRK cells [7] = assay: Activity to induce changes in cell morphology, K-ras-NRK cells; format: cell-based, rat; conditions: 0.3 μg/ml, 2 days
Experimental: as §4
K-ras-NRK is a transformed cell line, and the cells appear round with its central portion raised.

H-ras-NIH 3T3 cells [8] = assay: Activity to induce changes in cell morphology, H-ras-NIH 3T3 cells; format: cell-based, mouse; conditions: 0.3 μg/ml, 2 days
Experimental: as §2, §4
K-ras-NIH 3T3 and H-ras-NIH 3T3 are transformed cell lines, and the cells are elongated with projections or processes on their surface, and grow atop the other. N-ras-NIH 3T3 cells are also elongated and their projections or processes are even longer.

## CCC12CC(C(=O)OC)=C3Nc4cc5c(cc4C34CCN(CC3OC31)C42)C1C(O5)C(O)C2(CC)CC(C(=O)OC)=C3Nc4c(cc(O)c(OC)c4OC)C34CCN1C42 (centres unmarked) [III-121C]
K-ras-NIH 3T3 cells
  actin filaments / cell morphology: morphology of normal cells with longitudinally extending linear actin filaments
K-ras^ts NRK cells; K-ras^ts-NRK, 33° C., different concentrations
  cell propagation inhibition (cell growth curve, FIG. 7): inhibited the cell propagation in concentration dependent manner
K-ras^ts NRK cells; 33° C.
  IC50: 0.29 µg/mL (≈ 0.365 µM)
K-ras^ts NRK cells; 39° C.
  IC50: 0.2 µg/mL (≈ 0.252 µM)
K-ras^ts-NRK cells [1]
  actin filaments / cell morphology: morphology of normal cells with longitudinally extending linear actin filaments
K-ras^ts-NRK cells [2]; 1 μg/ml, 33° C.
  anti-ras activity: has an anti-ras activity
K-ras^ts-NRK cells [2]; 33° C., 1 μg/ml, after one day
  change in cell morphology: the cells no longer grew atop the other and became flat
K-ras^ts-NRK cells [2]; 33° C., 1 μg/ml, after two days
  change in cell morphology and growth habits: such change in the cell morphology and growth habits were even more significant
K-ras^ts-NRK cells [2]; compared with microtubule inhibitors
  cell division inhibitory activity: free from the cell division inhibitory activity; also recorded: not associated with the cell division inhibitory action
K-ras^ts-NRK cells [3]; 33° C., 0.3 μg/ml
  change in cell morphology and growth habits: the cells changed their morphology and growth habits to those of normal cells
K-ras^ts-NRK cells [3]; 39° C.
  change in cell morphology and growth habits: the cell morphology and growth habits were the same as the K-ras^ts -NRK cells that had been incubated in the absence of III-121C
H-ras-NIH 3T3 cells [4]
  IC50: 0.48 µg/mL (≈ 0.604 µM)
K-ras-NRK cells [5]
  actin filaments / cell morphology: morphology of normal cells with longitudinally extending linear actin filaments
Cancer cell
  IC50: 0.1 to 0.5 µg/mL (≈ 0.126 to 0.629 µM)
H-ras-NIH 3T3 cells [6]
  actin filaments / cell morphology: morphology of normal cells with longitudinally extending linear actin filaments
K-ras-NRK cells [7]
  change in cell morphology and growth habits: the cells changed their morphology and growth habits to those of normal cells, and became flat with an increased area of contact
H-ras-NIH 3T3 cells [8]
  change in cell morphology and growth habits: the cells changed their morphology and growth habits to those of normal NIH 3T3 cells, and became flat with an increased area of contact
